Measured values from ChEMBL document CHEMBL1201862, “PubChem BioAssay data set” (2004).
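All cell lines were grown in 96-well plates and treated with compound for 48 hours. GI50 = concentration required for 50% inhibition of growth.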 The source made the active and inactive calls. Rule as the data show it: active = GI50 up to about 1.1 µM and inactive = higher.

Key:
Assay in all cases: inhibition of tumour cell growth, NCI panel, 48 h
SR = tested on: SR
NCI-H23 = tested on: NCI-H23
OVCAR-8 = tested on: OVCAR-8
HOP-92 = tested on: HOP-92
SF-268 = tested on: SF-268
HCC 2998 = tested on: HCC 2998
EKVX = tested on: EKVX
CCRF-CEM = tested on: CCRF-CEM
OVCAR-3 = tested on: OVCAR-3
SN12C = tested on: SN12C
TK-10 = tested on: TK-10
ACHN = tested on: ACHN
SW-620 = tested on: SW-620
UACC-257 = tested on: UACC-257
CAKI-1 = tested on: CAKI-1
K562 = tested on: K562
A498 = tested on: A498

Measured: GI50

CCOC(=O)Cn1c2ccccc2c(=O)c2cc(C)c(C)c(C#N)c21
inactive: SR > 100 µM | NCI-H23 > 100 µM | OVCAR-8 84.3 µM | HOP-92 21.8 µM | SF-268 > 100 µM | HCC 2998 > 100 µM | EKVX > 100 µM | CCRF-CEM > 100 µM | OVCAR-3 > 100 µM | SN12C > 100 µM | TK-10 > 100 µM | ACHN > 100 µM | SW-620 > 100 µM | UACC-257 > 100 µM

O=c1/c(=C/c2ccccc2[N+](=O)[O-])sc2nc3ccccc3n12
inactive: SR 12.2 µM | NCI-H23 28.6 µM | CAKI-1 > 73.1 µM | OVCAR-8 38.9 µM | K562 40.8 µM | HOP-92 32.1 µM | SF-268 29.9 µM | A498 17.3 µM | HCC 2998 30.8 µM | EKVX > 100 µM | CCRF-CEM 13 µM | OVCAR-3 > 31.6 µM | SN12C 44.1 µM | TK-10 > 46.5 µM | ACHN > 46.5 µM | SW-620 24.1 µM | UACC-257 34.8 µM

CC(=O)OCC1OC(n2c(=O)n(-c3ccccc3)c(=O)c3cc(Br)cc(Br)c32)C(OC(C)=O)C(OC(C)=O)C1OC(C)=O (stereo not given)
inactive: NCI-H23 > 100 µM | CAKI-1 2.56 µM | OVCAR-8 > 100 µM | K562 > 100 µM | HOP-92 > 100 µM | SF-268 > 100 µM | A498 > 100 µM | HCC 2998 > 100 µM | EKVX > 100 µM | CCRF-CEM > 100 µM | OVCAR-3 > 100 µM | SN12C > 100 µM | TK-10 > 100 µM | ACHN > 100 µM | SW-620 > 100 µM | UACC-257 > 100 µM

Clc1cc(Cl)c2c(Cl)cc(Cl)c3c2c1N=S=N3
inactive: NCI-H23 > 100 µM | CAKI-1 > 100 µM | OVCAR-8 > 100 µM | K562 > 100 µM | HOP-92 > 100 µM | SF-268 > 100 µM | A498 6.68 µM | HCC 2998 > 100 µM | EKVX > 100 µM | CCRF-CEM 52.1 µM | OVCAR-3 > 100 µM | TK-10 > 100 µM | SW-620 > 100 µM | UACC-257 > 100 µM

Cc1cc2c(cc1C)[n+]([O-])c(C(=O)C/C(=N/NC(=O)c1ccccc1O)C(=O)Nc1ccccc1C(C)C)c(C)[n+]2[O-]
inactive: NCI-H23 > 100 µM | CAKI-1 > 100 µM | OVCAR-8 > 100 µM | K562 31.6 µM | SF-268 68.2 µM | A498 > 100 µM | HCC 2998 > 100 µM | EKVX > 100 µM | CCRF-CEM 27.3 µM | OVCAR-3 37.2 µM | SN12C > 100 µM | TK-10 > 100 µM | ACHN > 100 µM | SW-620 97.1 µM | UACC-257 > 100 µM

COc1ccc(-c2oc3cc(O)c(OC)c(O)c3c(=O)c2OC2OC(CO)C(O)C(O)C2O)cc1 (stereo not given)
inactive: NCI-H23 > 100 µM | OVCAR-8 91 µM | K562 > 100 µM | HOP-92 > 100 µM | HCC 2998 > 100 µM | EKVX > 100 µM | CCRF-CEM > 100 µM | OVCAR-3 > 100 µM | SN12C > 100 µM | TK-10 > 100 µM | ACHN 91.2 µM | SW-620 > 100 µM

CC1=C(C)CC2(CCCCC2=O)[S+]([O-])C1 (stereo not given)
inactive: SR > 100 µM | NCI-H23 > 100 µM | OVCAR-8 > 100 µM | K562 > 100 µM | HOP-92 > 100 µM | SF-268 > 100 µM | A498 > 100 µM | HCC 2998 > 100 µM | EKVX > 100 µM | CCRF-CEM > 100 µM | OVCAR-3 > 100 µM | SN12C > 100 µM | TK-10 > 100 µM | ACHN > 100 µM | SW-620 > 100 µM | UACC-257 > 100 µM

COc1cc(/C=C(\C#N)c2ccccc2)cc(OC)c1
inactive: SR 36.1 µM | NCI-H23 20.3 µM | CAKI-1 51.1 µM | OVCAR-8 > 10 µM | K562 15.2 µM | SF-268 40.9 µM | HCC 2998 67.6 µM | EKVX 77.1 µM | CCRF-CEM 30.7 µM | OVCAR-3 > 100 µM | SN12C 74.6 µM | TK-10 > 100 µM | ACHN 60.5 µM | SW-620 38.9 µM | UACC-257 8.59 µM

CS/C(c1ccccc1)=[N+](/C)[O-]
inactive: SR 24.2 µM | NCI-H23 > 100 µM | CAKI-1 > 100 µM | OVCAR-8 > 100 µM | K562 > 67.9 µM | HOP-92 > 100 µM | SF-268 > 100 µM | A498 > 100 µM | HCC 2998 > 100 µM | EKVX > 100 µM | CCRF-CEM > 51.2 µM | OVCAR-3 > 100 µM | SN12C > 100 µM | TK-10 > 100 µM | ACHN > 100 µM | SW-620 > 100 µM | UACC-257 > 100 µM

C/C(CC(=O)Nc1ccc(NC(=O)/C(C)=N/NS(=O)(=O)c2ccc(C)cc2)cc1)=N\NS(=O)(=O)c1ccc(C)cc1
inactive: NCI-H23 > 100 µM | CAKI-1 > 100 µM | OVCAR-8 > 100 µM | K562 > 100 µM | HOP-92 > 100 µM | SF-268 > 100 µM | A498 > 100 µM | HCC 2998 > 100 µM | EKVX > 100 µM | CCRF-CEM > 10 µM | OVCAR-3 > 100 µM | SN12C > 100 µM | TK-10 > 100 µM | ACHN > 100 µM | SW-620 > 100 µM | UACC-257 > 100 µM

C[C@H]1CC[P+](C)(c2ccccc2)C1 (stereo not given in full)
inactive: SR > 100 µM | NCI-H23 > 100 µM | OVCAR-8 > 100 µM | K562 > 100 µM | A498 > 100 µM | HCC 2998 > 100 µM | EKVX > 100 µM | CCRF-CEM > 100 µM | OVCAR-3 > 100 µM | SN12C > 100 µM | TK-10 > 100 µM | ACHN > 100 µM | SW-620 > 100 µM | UACC-257 > 100 µM

Brc1cc2c(cc1Br)CN(c1ccccc1)C2
inactive: NCI-H23 > 100 µM | OVCAR-8 > 100 µM | K562 80 µM | HOP-92 41.5 µM | SF-268 > 100 µM | A498 > 100 µM | HCC 2998 > 100 µM | EKVX > 100 µM | CCRF-CEM > 100 µM | OVCAR-3 > 100 µM | SN12C > 100 µM | TK-10 > 100 µM | ACHN > 100 µM | SW-620 > 100 µM | UACC-257 > 100 µM

NC(CNc1ccc(O)cc1)C(=O)O (stereo not given)
inactive: SR 87.9 µM | CAKI-1 81.8 µM | OVCAR-8 > 100 µM | K562 89.1 µM | HOP-92 > 100 µM | SF-268 > 100 µM | A498 > 100 µM | EKVX > 100 µM | CCRF-CEM 33.6 µM | OVCAR-3 > 100 µM | SN12C > 100 µM | TK-10 > 100 µM | ACHN 57.8 µM | SW-620 > 100 µM | UACC-257 > 100 µM

O=S1OC(c2ccccc2)(c2ccccc2)C(c2ccccc2)(c2ccccc2)O1
inactive: SR 8.93 µM | NCI-H23 > 52.7 µM | OVCAR-8 > 100 µM | K562 25.1 µM | HOP-92 7.74 µM | SF-268 > 91.4 µM | A498 > 100 µM | HCC 2998 > 100 µM | EKVX 48.3 µM | CCRF-CEM 7.01 µM | OVCAR-3 > 100 µM | SN12C > 100 µM | TK-10 > 100 µM | ACHN 41.7 µM | SW-620 > 100 µM | UACC-257 46.6 µM

CCc1nc2c([nH]1)C(=O)c1ccccc1C2=O
inactive: SR 38.5 µM | NCI-H23 29 µM | CAKI-1 47.8 µM | OVCAR-8 57.9 µM | K562 55 µM | SF-268 70 µM | A498 > 100 µM | HCC 2998 31.8 µM | EKVX 94.4 µM | CCRF-CEM 48.5 µM | OVCAR-3 23 µM | SN12C 37.2 µM | TK-10 > 100 µM | ACHN 59.8 µM | SW-620 43.4 µM | UACC-257 26.5 µM

Cc1ccc(Nc2cccc3c2C(=O)c2cccc(Nc4ccc(C)cc4S(=O)(=O)O)c2C3=O)c(S(=O)(=O)O)c1
inactive: SR > 100 µM | CAKI-1 > 100 µM | OVCAR-8 > 100 µM | K562 > 100 µM | SF-268 > 100 µM | A498 > 100 µM | HCC 2998 > 100 µM | EKVX > 100 µM | CCRF-CEM > 100 µM | OVCAR-3 > 100 µM | SN12C > 100 µM | TK-10 > 100 µM | ACHN > 100 µM | SW-620 > 100 µM | UACC-257 > 100 µM

c1ccc(C2OC3(CCC[C@H]4C[C@H]43)O[C@H]2c2ccccc2)cc1 (stereo not given in full)
inactive: SR 27.2 µM | NCI-H23 38.6 µM | CAKI-1 29.6 µM | OVCAR-8 48 µM | K562 22.7 µM | HOP-92 27.3 µM | SF-268 73.8 µM | A498 > 100 µM | HCC 2998 39.9 µM | EKVX 32.8 µM | CCRF-CEM 22.2 µM | OVCAR-3 37.4 µM | SN12C 34.4 µM | TK-10 > 100 µM | ACHN 30.3 µM | SW-620 31.2 µM | UACC-257 30.9 µM
